This note sets out measurements from US10188629B2, “Prodrug of green tea epigallocatechin-3-gallate (pro-EGCG) for use in the treatment of endometriosis” (The Hong Kong Polytechnic University, priority 2012, dated 2019).

“Also recorded” adds a separate entry of the source.

What all share (format): in vivo, mice
Series [1] relates to vascular endothelial growth factor (VEGF). The series can be described thus: VEGF concentrations in plasma and lesions by ELISA. From the text: Pharmacokinetics of EGCG and pro-EGCG in the animals were studied by measuring the corresponding EGCG and pro-EGCG concentrations (EGCG in the EGCG group, pro-EGCG in the pro-EGCG group) in plasma during the intervention and also in lesions at the end of intervention. EGCG and pro-EGCG were quantified by analytical methods as previously described (Lam W H, et al. Bioorg Med Chem. 2004; 510:69-93; Chu K O, et al. J Chromat B 2004; 810:187-95; Chu K O, et al. Anal Chim Acta 2004; 510:69-76). Anti-oxidative and anti-angiogenesis capacities of the samples were also studied by measuring oxygen radical absorbance capacity (ORAC) using a modified phycoerythrin fluorescence decay assay as previously described (Wang C C, et al. Clin Chem 2004; 50:952-4), and vascular endothelial growth factor (VEGF) concentrations were measured using a commercial ELISA kit (Uscn Life Science Inc., TX) according to the manufacturer's manual. Blood samples (n=8 per group) were collected from the tail vein once per week, and plasma was prepared by immediate centrifugation. Implants without subcutaneous and muscle layers (n=4 per group) were removed from the abdominal wall, and the endometriotic lesions were frozen. All of the samples were kept in −80° C. prior to analysis.
In general terms: An ELISA detects its analyte on a solid surface through an enzyme-linked reagent.

For series [2], the system named is apoptotic cells in the endometriotic lesions. Nature of the series: Apoptosis in endometriotic lesions by Cellvizio YO-PRO-1 imaging and TUNEL staining. The note with it: after 4 weeks. Here is the method:
(§1) At the end of intervention, functional angiogenesis of the endometriotic lesions (n=8 per group) was monitored by measuring the flow of fluorescence dye in the new microvessels developed in the implants using a Cellvizio® LAB LSU-488 system with a ProFlex Microprobe S1500 (Mauna Kea Technologies, Paris) as previously described (Xu H, et al. Fertil Steril 2011; 96:1021-8.). A total of 10 mg/ml of FITC-Dextran was injected intravenously into each mouse prior to imaging. Total vessel length (μm) and area (μm^2) and functional capillary length (μm^−1) and area density were measured using Cellvizio® LAB Vessel Detection software, and averaged from 4 perpendicular regions of the lesions in replicates. At the same time, apoptotic cells in the lesions were captured by Cellvizio-LAB 488 with a ProFlex MiniO/100 microprobe using Cellvizio® LAB I/C Viewer software (Mauna Kea Technologies). A total of 10 μl of 10 μM YO-PRO®-1 iodide in DSMO was injected into the lesion area.
The total number of apoptotic cells was counted and averaged from the 4 perpendicular regions of the lesions in replicates as described above. Both IVIS and Cellvizio imaging procedures were performed under general anesthesia with isoflurane (Baxter, Ill.), and the mice were observed until fully recovered.
TUNEL labeling for in situ apoptotic cells was performed using an ApopTag Peroxidase In Situ Apoptosis Detection Kit (Temecula, Calif.) according to the manufacturer's instructions. The total numbers of TUNEL-positive stained cells were counted. The mean numbers of apoptotic cells were calculated from 5 separated sections from each animal within the treatment group and are presented as numbers per lesion as above. […] Each section was evaluated by both examiners, who were blinded to the experimental groups and results.

The test system of series [3] is endometriotic lesions (experimental endometriosis). Nature of the series: Lesion size, weight and histology at end of intervention. Particulars: for lesion size compared to control group / lesion weight compared to control group / development and histology of the endometriotic lesions: after 4 weeks i.p. once per day; for lesion size compared to control group / lesion weight compared to control group: EGCG, pro-EGCG 50 mg/kg, vitamin E 20 mg/kg; for development and histology of the endometriotic lesions: microscopic examination. The text has this: In this study, endometrial tissues from eight-week-old female CMV-Luc mice (n=15) were acquired for transplantation into nonluminescent NOD-SCID mice (n=32). The mouse endometrium was obtained during the proliferating estrous stage, and biopsies 2 mm in diameter were obtained with a sterile dermal biopsy punch (Miltex, NY). The biopsies were immediately washed in prewarmed, phenol-red-free DMEM/F-12 medium (Sigma) to remove residual blood and mucus, and the samples were maintained in serum-free DMEM/F-12 medium before transplantation (Bruner-Tran K L, et al. J Clin Endocrinol Metab 2009; 94:2489-94). Cultured endometrial biopsies were randomly allocated for transplantation.
Five mouse endometrial biopsies per treatment group were implanted into a single subcutaneous pocket created is the abdominal wall of the mice along the ventral midline immediately below the umbilicus. All of the surgical procedures were performed under general anesthesia with isoflurane (Baxter, IL), and the mice were monitored until they fully recovered.
At the end of intervention, size of the endometriotic lesions was determined as the longest length and perpendicular width according to a venire caliper and was calculated as 0.52×width^2×length in mm^3. The endometrial implants, together with subcutaneous and muscle layers, were removed from the abdomen wall for detailed histological examination and specific staining analysis.
(§2) Paraffin sections (n=4 per group) were prepared for standard hematoxylin and eosin (H&E) staining, angiogenesis immunostaining and TUNEL staining as previously described (Xu H, et al. Hum Reprod 2009; 24:608-18.). Immunohistochemistry staining of in situ angiogenesis was performed by the immunoperoxidase method using a MACH 3 HRP Polymer Kit (Biocare Medical, Concord), and counterstained using methyl green or blue solution.

Series [4] concerns microvessels in the endometriotic lesions. Nature of the series: Angiogenesis of endometriotic lesions by Cellvizio, microCT and CD31/αSMA immunostaining. Particulars: after 4 weeks; for functional capillary length, density and area in the lesions compared to saline group / total vessel area in the lesions compared to saline group / total vessel length in the lesions compared to saline group / lesion neovascularization: Cellvizio; for functional capillary length, density and area in the lesions compared to saline group / total vessel area in the lesions compared to saline group / total vessel length in the lesions compared to saline group: FITC-Dextran; for lesion neovascularization / vessel volume and density in the lesions compared to saline group: microCT; for lesion neovascularization: CD31 and αSMA staining; for CD31-positively and αSMA-negatively stained new microvessel numbers compared to saline group / CD31-positively and αSMA-positively stained old microvessel numbers compared to saline group: immunostaining; for vessel volume and density in the lesions compared to saline group: Microfil. The protocol: as §1
After live animal imaging, structural angiogenesis in the endometriotic lesions (n=4 per group) was further examined by detecting the Microfil in the new microvessels developed in the implants using a VivaCT 40 μCT system (Scanco Medical, Switzerland) as previously described (Sun M H, et al. J Orthop Res. 2012; 30:137-43.). The mice were sacrificed by cervical dislocation and where immediately perfused with 4% paraformaldehyde and Microfil MV-120 Blue. Three-dimensional microvessel architecture was constructed, and absolute and relative Microfil-filled microvessel volumes were determined using the built-in software.
as §2
Antibodies against mouse CD31 and alpha-smooth muscle actin (αSMA) (Abcam Inc., MA) were used to double fluorescence stain the microvessels developed in the endometriotic lesions, and CD34 (Abeam Inc.) was used to stain the microvessels in the ovaries and uterus. The samples without primary antibodies served as negative controls. The total number of positively stained new and old microvessels in the lesions was counted, respectively. The mean microvessel numbers and sizes were calculated from 5 separated sections from each animal within the treatment group and are presented as numbers per lesion and μm^2 per lesion, respectively.

The subject of series [5] is ovarian follicles, endometrial glands, ovarian and endometrial stroma microvessels. Nature of the series: Reproductive effects on eutopic endometrium and ovaries (H&E, CD34 immunostaining). Particulars: H&E staining after 4-week intervention. The protocol: Reproductive effects of EGCG and pro-EGCG on the endometrium and ovaries of each animal were also examined. After the 4-week intervention, the uterine horns and ovaries (n=8 per group) were removed and fixed for histological examination and angiogenesis immunostaining as described above. Endometrial glands, ovarian follicles and vascularization in endometrial and ovarian stroma were assessed.

Setting [6] is: after 4 weeks, 50 mg/kg i.p. once per day.

As to `O=C(O[C@@H]1Cc2c(O)cc(O)cc2O[C@@H]1c1cc(O)c(O)c(O)c1)c1cc(O)c(O)c(O)c1` [EGCG, (−)-epigallocatechin-3-gallate], the “VEGF concentrations in endometriotic lesions compared to saline group” value in series [1] (lesions after intervention) is “significantly decreased”. In addition, the “VEGF concentrations in plasma compared to saline group” value in series [1] (plasma during intervention) is listed as “significantly decreased”. For the same compound, in series [2], the “total apoptotic cell numbers in the lesions compared to saline group” value is “significantly increased”. Moreover, in series [3], the “lesion size compared to control group” value was “significantly decreased”; the “lesion weight compared to control group” value is “significantly decreased”; the “development and histology of the endometriotic lesions” value was “poorly developed; also recorded: small and loosely attached to the adjacent tissues”. Further, in series [4], the “functional capillary length, density and area in the lesions compared to saline group” value is “significantly inhibited”; the “total vessel area in the lesions compared to saline group” value is on record as “significantly inhibited”; the “total vessel length in the lesions compared to saline group” value is “significantly inhibited”; the lesion neovascularization entry was “poorly developed”. In addition, in series [4], the “CD31-positively and αSMA-negatively stained new microvessel numbers compared to saline group” value is reported as “significantly inhibited”; the “CD31-positively and αSMA-positively stained old microvessel numbers compared to saline group” value is “significantly inhibited”; the “vessel volume and density in the lesions compared to saline group” value was “significantly inhibited”. Further, in series [5], the “effects on ovarian follicles” value was “not affected” and the “effects on uterine endometrial glands” value was “not affected”.

As to `CC(=O)Oc1cc(OC(C)=O)c2c(c1)O[C@H](c1cc(OC(C)=O)c(OC(C)=O)c(OC(C)=O)c1)[C@H](OC(=O)c1cc(OC(C)=O)c(OC(C)=O)c(OC(C)=O)c1)C2` [pro-EGCG, (−)-EGCG octaacetate], in series [1] (lesions after intervention), the “VEGF concentrations in endometriotic lesions compared to saline group” value is recorded as “significantly decreased” and the “VEGF concentrations in endometriotic lesions compared with EGCG group” value is given as “significantly lower than those in the EGCG group”. Also, in series [1] (plasma during intervention), the “VEGF concentrations in plasma compared to saline group” value is listed as “significantly decreased” and the “VEGF concentrations in plasma compared with EGCG group” value is “significantly lower than those in the EGCG group”. Also, in series [2], the “apoptotic cell numbers in the lesions compared with EGCG group” value is recorded as “significantly higher than the number in the EGCG group” and the “total apoptotic cell numbers in the lesions compared to saline group” value is “significantly increased”. In addition, in series [3], the “lesion size compared to control group” value is “significantly decreased”; the “lesion weight compared to control group” value is listed as “significantly decreased”; the “development and histology of the endometriotic lesions” value was “poorly developed; also recorded: degraded and almost detached from the peritoneal muscle layers”. In series [3] (setting [6]), the “lesion size compared with EGCG-treated mice” value was “significantly smaller” and the “lesion weight compared with EGCG-treated mice” value was “lighter”. Also, in series [4], the “functional capillary length, density and area in the lesions compared to saline group” value is reported as “significantly inhibited”; the “total vessel area in the lesions compared to saline group” value is recorded as “significantly inhibited”; the “total vessel length in the lesions compared to saline group” value is “significantly inhibited”; the lesion neovascularization entry was “poorly developed”. Also, in series [4], the “CD31-positively and αSMA-negatively stained new microvessel numbers compared to saline group” value was “significantly inhibited”; the “CD31-positively and αSMA-positively stained old microvessel numbers compared to saline group” value is given as “significantly inhibited”; the “vessel volume and density in the lesions compared to saline group” value is listed as “significantly inhibited”. The “all of the microvessel parameters compared with EGCG group” value in series [4] (50 mg/kg i.p.) is “significantly lower than those in the EGCG group”. Besides, in series [5], the “effects on ovarian follicles” value is recorded as “not affected” and the “effects on uterine endometrial glands” value is on record as “not affected”.
